A short description of one data set: in vitro. The note with it: human, liver microsomes. For orientation: Liver microsomes are a subcellular fraction often used to study metabolism.
For data set [1], the species on record is Mus musculus. The data set can be described thus: animal or person. The note with it: C57BL, Plasma, po, read-out: INH.
Description: Inhibition of 11-beta-HSD1 in C57BL mouse assessed as reduction of plasma cortisol level at 30 mg/kg, po administered 30 mins before cortisone challenge measured after 60 mins by ELISA relative to control
For data set [2], the species on record is Mus musculus. As to the kind of experiment: animal or person. The note with it: C57BL, Plasma, po, read-out: INH. This is another data set of the same source.
Description: Inhibition of 11-beta-HSD1 in C57BL mouse assessed as reduction of plasma cortisol level at 1 mg/kg, po administered 30 mins before cortisone challenge measured after 60 mins by ELISA relative to control
The species entered for data set [3] is Mus musculus. The data set can be described thus: animal or person. The note with it: C57BL, Plasma, po, read-out: INH. The source holds these as a separate data set.
Description: Inhibition of 11-beta-HSD1 in C57BL mouse assessed as reduction of plasma cortisol level at 3 mg/kg, po administered 30 mins before cortisone challenge measured after 60 mins by ELISA relative to control
For data set [4], the species on record is Mus musculus. The data set can be described thus: animal or person. The note with it: C57BL, Plasma, po, read-out: INH. The source holds these as a separate data set.
Description: Inhibition of 11-beta-HSD1 in C57BL mouse assessed as reduction of plasma cortisol level at 10 mg/kg, po administered 30 mins before cortisone challenge measured after 60 mins by ELISA relative to control
The species entered for data set [5] is Mus musculus. As to the kind of experiment: animal or person. The note with it: C57BL, Plasma, po, read-out: INH. The source holds these as a separate data set.
Description: Inhibition of 11-beta-HSD1 in C57BL mouse assessed as reduction of plasma cortisol level at 100 mg/kg, po administered 30 mins before cortisone challenge measured after 60 mins by ELISA relative to control

Description for in vitro: Intrinsic clearance in human liver microsomes

In “in vitro”, `O=C(NC1C2CC3CC(C2)CC1C3)[C@H]1CCCN1CC1(O)CCCC1` (some centres not stated) registered a CLint scaled of 86.2 mL/min/kg.

Consider `N#Cc1ccc(CN2CCC[C@@H]2C(=O)NC2C3CC4CC(C3)CC2C4)cc1` (some centres not stated), for which the CLint scaled in the data set “in vitro” was found to be 73.2 mL/min/kg.

As for `O=C(NC1C2CC3CC(C2)CC1C3)[C@H]1CCCN1CC1(O)CCCCC1` (some centres not stated), in the data set “in vitro”, the CLint scaled was 64.6 mL/min/kg. Take `O=C(NC1C2CC3CC(C2)CC1C3)[C@H]1CCCN1CC1CCOCC1` (some centres not stated): in the data set “in vitro”, the CLint scaled is 20.3 mL/min/kg. Same read-out and setting: under `CC(C)CN1CCC[C@@H]1C(=O)NC1C2CC3CC(C2)CC1C3` (some centres not stated) stands 79.3 mL/min/kg; under `CN1CCC[C@@H]1C(=O)NC1C2CC3CC(C2)CC1C3` (some centres not stated), 22.2 mL/min/kg; under `O=C(NC1C2CC3CC(C2)CC1C3)[C@H]1CCCN1CC1CCC1` (some centres not stated), 85.8 mL/min/kg. `CCN1CCC[C@@H]1C(=O)NC1C2CC3CC(C2)CC1C3` (some centres not stated): the inhibition in vivo at 30 mg/kg in the data set filed under Mus musculus [1] came to 20%. Also, the inhibition in vivo at 1 mg/kg in the data set filed under Mus musculus [2] amounted to 52%. For the same molecule, the inhibition in vivo at 3 mg/kg in the data set filed under Mus musculus [3] worked out at 46%. For the same molecule, in the data set “in vitro”, the CLint scaled was found to be 43.9 mL/min/kg. In addition, the inhibition in vivo at 10 mg/kg in the data set filed under Mus musculus [4] amounted to 23%. The inhibition in vivo at 100 mg/kg in the data set filed under Mus musculus [5] was 18%. In “in vitro”, `CCCN1CCC[C@@H]1C(=O)NC1C2CC3CC(C2)CC1C3` (some centres not stated) registered a CLint scaled of 93.3 mL/min/kg. In turn, `O=C(NC1C2CC3CC(C2)CC1C3)[C@H]1CCCN1CC1CCCC1` (some centres not stated) registered a CLint scaled in “in vitro” of 75.3 mL/min/kg.

Take `O=C(NC1C2CC3CC(C2)CC1C3)[C@H]1CCCN1CC1CCCCC1` (some centres not stated): in the data set “in vitro”, the CLint scaled was determined as 62.8 mL/min/kg.

Molecule `O=C(NC1C2CC3CC(C2)CC1C3)[C@H]1CCCN1c1ccccn1` (some centres not stated) came in with a CLint scaled in the data set “in vitro” of 79.2 mL/min/kg.

In general, CLint scaled refers to a measure of how fast metabolising enzymes remove a compound, apart from limits set by blood flow. A high value points to rapid turnover.

The values above are taken from ChEMBL document CHEMBL1157918, “The development and SAR of pyrrolidine carboxamide 11beta-HSD1 inhibitors” (Bioorg Med Chem Lett, 2010).
